Assays:
Format in all cases: cell-based
human TLR9 = human TLR9 (Homo sapiens (Human), UniProt Q9NR96); assay: HEK293-Blue-hTLR-9 cells assay; conditions: HEK293-Blue-hTLR9 cells, ODN2006 stimulation, 20 hrs, SEAP reporter; read-out: HEK/hTLR9 IC50
hERG channel = hERG channel (Homo sapiens (Human), UniProt Q12809); assay: hERG channel inhibition assay; conditions: patch-clamp; for IC50: CHO hERG cells; for IC20: human, CHO cells stably expressing hERG
Method: hERG Channel Inhibition Assay
The hERG K^+ channels were cloned in humans and stably expressed in a CHO (Chinese hamster ovary) cell line. CHOhERG cells were used for patch-clamp (voltage-clamp, whole-cell) experiments. Cells were stimulated by a voltage pattern to activate hERG channels and conduct IKhERG Currents (rapid delayed outward rectifier potassium current of the hERG channel). After the cells were stabilized for a few minutes, the amplitude and kinetics of IKhERG were recorded at a stimulation frequency of 0.1 Hz (6 bpm). Thereafter, the test compound was added to the preparation at increasing concentrations. For each concentration, an attempt was made to reach a steady-state effect, usually, this was achieved within 3-10 min at which time the next highest concentration was applied. The amplitude and kinetics of IKhERG are recorded in each concentration of the drug which were compared to the control values (taken as 100%). (references: Redfern WS, Carlsson L, Davis A S, Lynch W G, MacKenzie I, Palethorpe S, Siegl P K, Strang I, Sullivan A T, Wallis R, Camm A J, Hammond T G. 2003; Relationships between preclinical cardiac electrophysiology, clinical QT interval prolongation and torsade de pointes for a broad range of drugs: evidence for a provisional safety margin in drug development. Cardiovasc. Res. 58:32-45, Sanguinetti M C, Tristani-Firouzi M. 2006; hERG potassium channels and cardiac arrhythmia. Nature 440:463-469, Webster R, Leishman D, Walker D. 2002; Towards a drug concentration effect relationship for QT prolongation and torsades de pointes. Curr. Opin. Drug Discov. Devel. 5:116-26).

human TLR8 = human TLR8 (Homo sapiens (Human), UniProt Q9NR97); assay: HEK293-Blue-hTLR-8 cells assay; conditions: HEK293-Blue-hTLR8 cells, R848 stimulation, 20 hrs, SEAP reporter; read-out: HEK/hTLR8 IC50
Chain of human TLR8 (Q9NR97 27-1041): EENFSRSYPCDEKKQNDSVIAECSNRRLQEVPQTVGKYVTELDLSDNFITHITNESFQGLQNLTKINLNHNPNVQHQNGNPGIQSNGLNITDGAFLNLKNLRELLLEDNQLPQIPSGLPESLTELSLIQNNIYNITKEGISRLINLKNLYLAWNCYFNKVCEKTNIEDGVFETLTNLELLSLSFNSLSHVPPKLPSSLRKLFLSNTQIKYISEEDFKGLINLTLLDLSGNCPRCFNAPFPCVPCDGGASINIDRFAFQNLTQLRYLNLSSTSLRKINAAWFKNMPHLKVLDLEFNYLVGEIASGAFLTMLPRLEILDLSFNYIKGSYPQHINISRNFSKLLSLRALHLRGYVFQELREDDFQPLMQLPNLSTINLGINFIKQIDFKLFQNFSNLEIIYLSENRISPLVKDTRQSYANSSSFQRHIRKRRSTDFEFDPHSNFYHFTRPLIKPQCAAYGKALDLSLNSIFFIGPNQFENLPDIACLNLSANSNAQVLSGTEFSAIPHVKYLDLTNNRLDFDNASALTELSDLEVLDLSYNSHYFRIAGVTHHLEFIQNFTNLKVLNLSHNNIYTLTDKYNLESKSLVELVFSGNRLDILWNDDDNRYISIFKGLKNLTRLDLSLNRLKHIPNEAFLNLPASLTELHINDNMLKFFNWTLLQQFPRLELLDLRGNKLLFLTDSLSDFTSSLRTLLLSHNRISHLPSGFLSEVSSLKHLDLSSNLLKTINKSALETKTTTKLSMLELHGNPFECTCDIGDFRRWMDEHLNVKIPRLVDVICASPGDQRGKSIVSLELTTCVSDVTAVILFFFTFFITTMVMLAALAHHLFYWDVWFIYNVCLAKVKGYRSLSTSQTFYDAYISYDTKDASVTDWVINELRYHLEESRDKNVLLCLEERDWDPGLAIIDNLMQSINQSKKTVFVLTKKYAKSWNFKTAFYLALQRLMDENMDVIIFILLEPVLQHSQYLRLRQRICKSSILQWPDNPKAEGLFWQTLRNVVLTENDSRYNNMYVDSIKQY

Chain of hERG channel (Q12809 whole entry): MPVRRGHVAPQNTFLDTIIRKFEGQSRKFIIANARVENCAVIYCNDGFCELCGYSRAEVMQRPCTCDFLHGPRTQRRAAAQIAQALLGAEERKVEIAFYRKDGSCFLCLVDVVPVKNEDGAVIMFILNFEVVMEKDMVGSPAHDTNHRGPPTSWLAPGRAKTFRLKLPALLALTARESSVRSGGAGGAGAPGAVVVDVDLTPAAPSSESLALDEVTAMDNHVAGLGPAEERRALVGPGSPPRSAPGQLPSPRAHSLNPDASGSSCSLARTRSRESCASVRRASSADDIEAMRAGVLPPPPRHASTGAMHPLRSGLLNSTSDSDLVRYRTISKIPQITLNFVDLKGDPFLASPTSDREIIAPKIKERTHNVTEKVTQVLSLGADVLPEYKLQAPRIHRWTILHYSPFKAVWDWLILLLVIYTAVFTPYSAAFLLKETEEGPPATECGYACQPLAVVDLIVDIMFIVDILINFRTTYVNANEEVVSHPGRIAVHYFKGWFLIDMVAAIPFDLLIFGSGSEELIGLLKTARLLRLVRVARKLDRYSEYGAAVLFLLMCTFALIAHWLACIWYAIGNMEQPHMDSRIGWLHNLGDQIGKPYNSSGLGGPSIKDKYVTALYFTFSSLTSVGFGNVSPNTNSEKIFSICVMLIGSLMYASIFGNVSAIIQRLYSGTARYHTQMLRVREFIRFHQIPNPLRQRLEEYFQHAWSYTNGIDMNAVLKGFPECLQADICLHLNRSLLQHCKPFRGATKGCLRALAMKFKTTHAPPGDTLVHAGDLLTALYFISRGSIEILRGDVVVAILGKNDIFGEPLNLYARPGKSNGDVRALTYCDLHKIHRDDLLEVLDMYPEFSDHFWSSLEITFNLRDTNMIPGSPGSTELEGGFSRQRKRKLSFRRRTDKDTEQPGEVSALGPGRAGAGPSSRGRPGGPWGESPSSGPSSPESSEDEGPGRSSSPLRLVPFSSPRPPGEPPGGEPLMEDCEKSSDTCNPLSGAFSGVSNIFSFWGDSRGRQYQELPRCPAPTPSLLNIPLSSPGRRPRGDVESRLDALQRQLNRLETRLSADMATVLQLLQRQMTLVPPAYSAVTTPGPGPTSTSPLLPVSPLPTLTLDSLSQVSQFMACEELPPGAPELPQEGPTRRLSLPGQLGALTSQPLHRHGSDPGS
Chain of human TLR9 (Q9NR96 26-1032): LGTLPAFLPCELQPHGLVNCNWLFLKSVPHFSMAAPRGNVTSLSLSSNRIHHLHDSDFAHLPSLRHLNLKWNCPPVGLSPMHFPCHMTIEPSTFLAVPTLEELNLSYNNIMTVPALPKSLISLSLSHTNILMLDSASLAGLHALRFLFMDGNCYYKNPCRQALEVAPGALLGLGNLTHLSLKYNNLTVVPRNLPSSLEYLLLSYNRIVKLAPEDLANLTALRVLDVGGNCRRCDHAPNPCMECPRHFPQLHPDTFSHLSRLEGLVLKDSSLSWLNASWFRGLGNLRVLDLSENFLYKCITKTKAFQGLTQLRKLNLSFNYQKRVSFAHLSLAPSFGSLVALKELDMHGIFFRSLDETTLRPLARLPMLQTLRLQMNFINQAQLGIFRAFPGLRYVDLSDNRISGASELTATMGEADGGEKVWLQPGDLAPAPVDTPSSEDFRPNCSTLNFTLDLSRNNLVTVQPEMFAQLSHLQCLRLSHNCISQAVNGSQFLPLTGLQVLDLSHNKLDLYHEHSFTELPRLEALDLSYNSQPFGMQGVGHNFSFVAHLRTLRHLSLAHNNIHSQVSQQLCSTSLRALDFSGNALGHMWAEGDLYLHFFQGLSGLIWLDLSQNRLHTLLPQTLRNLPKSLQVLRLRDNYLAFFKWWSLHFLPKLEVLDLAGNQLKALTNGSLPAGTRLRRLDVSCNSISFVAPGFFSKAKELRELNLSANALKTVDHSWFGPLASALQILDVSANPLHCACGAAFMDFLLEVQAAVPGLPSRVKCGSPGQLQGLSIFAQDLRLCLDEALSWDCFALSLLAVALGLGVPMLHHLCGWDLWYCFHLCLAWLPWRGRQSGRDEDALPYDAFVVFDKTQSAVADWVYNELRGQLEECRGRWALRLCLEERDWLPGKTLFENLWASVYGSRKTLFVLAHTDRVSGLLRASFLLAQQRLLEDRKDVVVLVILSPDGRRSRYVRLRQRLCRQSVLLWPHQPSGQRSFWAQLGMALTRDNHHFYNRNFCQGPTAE

| SMILES | IC50 (human TLR9) | IC50 (human TLR8) | IC50 (hERG channel) | IC20 (hERG channel) |
| --- | --- | --- | --- | --- |
| [2H]c1ccc2c(N3C[C@@H]4C[C@H](N5CCNCC5)CN4[C@H](C)C3)ccc(C#N)c2n1 [Example 15, 5-[(4R,7S,8aS)-4-methyl-7-piperazin-1-yl-3,4,6,7,8,8a-hexahydro-1H-pyrrolo[1,2-a]pyrazin-2-yl]-2-deuterio-quinoline-8-carbonitrile] | 120 nM | 20.3 nM | > 20 µM | > 10 µM |
| [2H]c1ccc2c(N3C[C@@H]4C[C@H](N5CCC(N(C)C)CC5)CN4[C@H](C)C3)ccc(C#N)c2n1 [Example 20, 5-[(4R,7S,8aS)-7-[4-(dimethylamino)-1-piperidyl]-4-methyl-3,4,6,7,8,8a-hexahydro-1H-pyrrolo[1,2-a]pyrazin-2-yl]-2-deuterio-quinoline-8-carbonitrile] | 150 nM | 18.3 nM | > 20 µM | > 10 µM |

Now those with a lower IC50 (human TLR9), led by results:

| IC50 (human TLR9) | IC50 (human TLR8) | SMILES | IC50 (hERG channel) | IC20 (hERG channel) |
| --- | --- | --- | --- | --- |
| 89.5 nM | 12.5 nM | C[C@@H]1CN(c2ccc(C#N)c3ncccc23)C[C@@H]2C[C@@H](Nc3cc4c(cn3)CCNC4)CN21 [Example 2, 5-[(4R,7R,8aS)-4-methyl-7-(5,6,7,8-tetrahydro-2,6-naphthyridin-3-ylamino)-3,4,6,7,8,8a-hexahydro-1H-pyrrolo[1,2-a]pyrazin-2-yl]quinoline-8-carbonitrile] | > 20 µM | > 10 µM |
| 43.4 nM | 13.4 nM | C[C@@H]1CN(c2ccc(C#N)c3ncccc23)C[C@@H]2C[C@@H](Nc3ccc4c(n3)CCNC4)CN21 [Example 1, 5-[(4R,7R,8aS)-4-methyl-7-(5,6,7,8-tetrahydro-1,6-naphthyridin-2-ylamino)-3,4,6,7,8,8a-hexahydro-1H-pyrrolo[1,2-a]pyrazin-2-yl]quinoline-8-carbonitrile] | > 20 µM | > 10 µM |
| 114 nM | 18.4 nM | C[C@@H]1CN(c2ccc(C#N)c3ncccc23)C[C@@H]2C[C@@H](Nc3ccc4c(n3)CNCC4)CN21 [Example 3, 5-[(4R,7R,8aS)-4-methyl-7-(5,6,7,8-tetrahydro-1,7-naphthyridin-2-ylamino)-3,4,6,7,8,8a-hexahydro-1H-pyrrolo[1,2-a]pyrazin-2-yl]quinoline-8-carbonitrile] | > 20 µM | > 10 µM |

From patent publication US12486273B2 (Hoffmann-La Roche Inc., priority 2019, dated 2025)
